Reference: patent US20260146264A1, “METHODS FOR REPROGRAMMING AND GENE EDITING CELLS” (Factor Bioscience Inc., priority 2023, published 2026)
Entries after “also recorded” stand apart in the source; their conditions may differ.

Assays:
[1] = tested on: Control iMSCs
Description: The cytotoxicity of small-molecule IDO1 inhibitors was assessed by flow cytometry after a 48 hour incubation with Control iMSCs. Viability is shown relative to PBS controls.

[2] = tested on: pJet promoter; assay: Reactivation of silenced pJet promoter (GFP expression) during iPSC to iMSC differentiation; format: cell-based, human; conditions: 10 μM, 24 hours on day 23 of differentiation, JeT-GFP cells
Source text: • 1. Transfect hiPSCs with a chromatin context-sensitive gene editing endonuclease according to some embodiments of the present disclosure, mRNA and single stranded DNA repair templates encoding GFP sequence under JeT (“pJet”) and Ef1a promoters. • 2. Perform gDNA extraction and AAVS1 surveyor PCR to confirm ssDNA repair template integration at AAVS1 locus • 3. Perform single cell sorting to obtain homogeneous cell line started from a single cell • 4. Using Stemdiff™ Mesenchymal Progenitor kit, differentiate iPS cell lines inserted with pJet and Ef1a GFP sequence in their genomes into iMSCs. • 5. Verify robust iMSC differentiation using surface marker expression at the completion of differentiation.
FIG. 16A and FIG. 16B show the tracking of GFP expression under a pJet promoter during iPSC to iMSC differentiation. […] GFP was expressed from day 18 to 30 but was completely silenced on day 33.

[3] = tested on: COL7A1_e73 gene-editing protein pair USN3 (US2L/US2R D467A) D467A in FokI domain of right protein (D84A of SEQ 80; mutant FokI domain is SEQ 83) (synthetic construct); assay: cell_activity; conditions: T7E1 assay, primary human fibroblasts; nickase pair
[4] = tested on: COL7A1_e73 gene-editing protein pair USN2 (US2L/US2R D450N) D450N in FokI domain of right protein (D67N of SEQ 80; mutant FokI domain is SEQ 82) (synthetic construct); assay: cell_activity; conditions: T7E1 assay, primary human fibroblasts; 0.4% in iPSCs; nickase pair, 42.9% relative insertion of dsDNA donor in fibroblasts
[5] = tested on: COL7A1_e73 gene-editing protein pair US22 (US2L/US2R, wild-type FokI domains) (synthetic construct); assay: cell_activity; conditions: T7E1 assay, primary human fibroblasts; 9.4% in iPSCs (p667)
[6] = tested on: COL7A1_e73 gene-editing protein pair USN1 (US2L/US2R D450A) D450A in FokI domain of right protein (D67A of SEQ 80; mutant FokI domain is SEQ 81) (synthetic construct); assay: cell_activity; conditions: T7E1 assay, primary human fibroblasts; nickase pair, 58.7% relative insertion of 300 bp dsDNA donor vs 72.3% for US22

For `C[C@@H](NC(=O)c1ccc(F)cc1)c1ccc2c(c1)CCN2C(=O)C1CCOCC1` [IDO1-IN-5], the “cytotoxicity (viability relative to PBS controls)” value [1] was “mild cytotoxicity”.
For `NS(=O)(=O)NCCNc1nonc1C(=NO)Nc1ccc(F)c(Br)c1` [Epacadostat], the “cytotoxicity (viability relative to PBS controls)” value [1] was “no significant difference relative to PBS”.
For `CC(/C=C/C(=O)NO)=C\[C@@H](C)C(=O)c1ccc(N(C)C)cc1` [Trichostatin A], the “GFP expression post TSA treatment” value [2] was “temporary increase in GFP expression” and the “GFP expression post TSA treatment” value ([2]; listed as TSA) was “noticeable increase of GFP expression; also recorded: successfully demethylated and reactivated the pJet promoter”.
COL7A1 exon 73 target site gave an activity [3] of 11.1 % NHEJ/MMEJ, an activity [4] of 3.1 % NHEJ/MMEJ and an activity [5] of 61.9 % NHEJ/MMEJ. It also gave an activity [6] of 4.4 % NHEJ/MMEJ.
